Freshness and cooling effect data for 4 compounds are collected here from patent US6359168B1, “Compounds derived from menthol and use as refreshing agent” (Firmenich SA, priority 1998, dated 2002).

Common to all, as to type: in vivo, human
For experiment [1], the system named is expert flavourists. The experiment can be described thus: Gelatin-based grapefruit confectioneries compared by expert flavourists under blind conditions. As to conditions: 0.05% by weight in gelatin-based grapefruit confectionery. The method, then:
By a method which is known per se, grapefruit-flavoured confectioneries were prepared from 30 g gelatin, 175 g water, 150 g sugar and 200 g glucose. We then added 0.8% citric acid and 0.08% of a grapefruit flavouring of the formula given in Example 6. Under blind conditions, expert flavourists then compared this base preserve, without any additives, with preserve of the same composition to which certain compounds according to the invention had been added.

The subject of experiment [2] is expert tasters. Kind of experiment: Chewing gum compared by expert tasters under blind conditions. Conditions: 0.4 parts by weight in chewing gum. On the procedure: Chewing gum was prepared from a Cafosa Navada Plus T 413-01chewing-gum base (18 parts by weight) (source: Cafosa Gum Products Technology, Barcelona, Spain), sugar (60 parts by weight, glucose (20 parts by weight) and glycerol (0.5 parts by weight). 0.8 parts by weight of citric acid and 1 part by weight of lemon flavouring according to the formula given in Example 8 were then added to this mixture. Under blind conditions, expert tasters then compared this chewing-gum base, without any additives, with chewing gums of the same composition to which certain compounds according to the invention had been added.

The subject of experiment [3] is expert flavourists. The experiment can be described thus: Grapefruit-flavoured sweets compared by expert flavourists under blind conditions. As to conditions: 0.05% in grapefruit-flavoured sweets. On the procedure: Grapefruit-flavoured sweets were prepared from boiled sugar, 1% citric acid, and 0.05% of a grapefruit flavouring of the following formula: Under blind conditions, expert flavourists then compared these sweets, without any additives, with sweets of the same composition to which certain compounds according to the invention had been added.

For experiment [4], the system named is expert tasters. The experiment can be described thus: Orange drink compared by expert tasters under blind conditions. Conditions: 0.003% in orange drink. The method, then: An orange-flavoured drink was prepared from a 65° Brix syrup which had been diluted to 10%, acidified with 1.5% citric acid and then flavoured with 0.01% of an orange flavouring of the following formula: Under blind conditions, expert tasters then compared this base drink, without any additives, with drinks of the same composition to which certain compounds according to the invention had been added.

Experiment [5] relates to expert flavourists. Kind of experiment: Lemon sorbets compared by expert flavourists under blind conditions. Conditions: 0.05% by weight in lemon sorbet. The method, then: Lemon sorbets were prepared from the following ingredients using conventional techniques: 0.5% citric acid and 0.01% of lemon flavouring of the following formula were then added: Under blind conditions, expert flavourists then compared this lemon sorbet, without any additives, with sorbets of the same composition to which certain compounds according to the invention had been added.

For experiment [6], the system named is buccal mucosae. The experiment can be described thus: Taste and cooling effect of the compound when tasted.

Regarding `COCCOCC(=O)O[C@@H]1C[C@H](C)CC[C@H]1C(C)C` [(1R,2S,5R)-3-menthyl 3,6-dioxaheptanoate], the freshness entry in experiment [1] is reported as “the same freshness effect”; in experiment [2], “prolonged freshness”.

Consider `COCC(=O)O[C@@H]1C[C@H](C)CC[C@H]1C(C)C` [(1R,2S,5R)-3-menthyl methoxyacetate, (1R,2S,5R)-3-methyl methoxyacetate], for which the freshness entry in experiment [3] was “yielded a freshness”; in experiment [4] it was “sensation of freshness which develops as an after-taste”; in experiment [1], “leaves a freshness in the mouth”; in experiment [5] it was “pleasant freshness in the mouth”; in experiment [2], “prolonged freshness”.

Consider `CC(C)[C@@H]1CC[C@@H](C)C[C@H]1OC(=O)COCCO` [(1R,2S,5R)-3-menthyl (2-hydroxyethoxy)acetate], for which, in experiment [6], the cooling effect result was “immediately and intensely cooling”.

As for `CC(C)[C@@H]1CC[C@@H](C)C[C@H]1OC(=O)COCCOCCOCCO` [(1R,2S,5R)-menthyl 11-hydroxy-3,6,9-trioxaundecanoate], in experiment [6], the cooling effect entry was “develops more particularly on the tongue and in the throat”.
